Experiment [1] deals with Enterobacter cloacae. Description: In vitro antimicrobial activity against Enterobacter 1321 E. It counts as functional.
Experiment [2] has as its system Escherichia coli. As to the kind of experiment: In vitro antimicrobial activity against Escherichia coli 055. It counts as functional.
Experiment [3] has as its system Escherichia coli. Description: In vitro antimicrobial activity against Escherichia coli 1507E. It counts as functional.
Experiment [4] deals with Escherichia coli. As to the kind of experiment: In vitro antimicrobial activity against Escherichia coli DC 0. Format: functional.
Experiment [5] has as its system Escherichia coli. Description: In vitro antimicrobial activity against Escherichia coli DC 2. Format: functional.
Experiment [6] relates to Escherichia coli. As to the kind of experiment: In vitro antimicrobial activity against Escherichia coli TEM. Format: functional.
In experiment [7] the test system is Enterobacter cloacae. Description: In vitro antimicrobial activity against Enterobacter cloacae P99. Format: functional.
In a further experiment the test system is Klebsiella oxytoca. As to the kind of experiment: In vitro antimicrobial activity against Klebsiella oxytoca 1082. It counts as functional.
Another experiment has as its system Klebsiella aerogenes. Description: In vitro antimicrobial activity against Klebsiella aerogenes 1522 E. It counts as functional.
The subject of experiment [8] is Pseudomonas aeruginosa. Description: In vitro antimicrobial activity against Pseudomonas aeruginosa 1771. It counts as functional.
For experiment [9], the system named is Pseudomonas aeruginosa. As to the kind of experiment: In vitro antimicrobial activity against Pseudomonas aeruginosa 1771 M. Format: functional.
Experiment [10] relates to Pseudomonas aeruginosa. Description: In vitro antimicrobial activity against Pseudomonas aeruginosa 9027. Format: functional.
For the next experiment, the system named is Salmonella typhimurium. As to the kind of experiment: In vitro antimicrobial activity against Salmonella Typhimurium. It counts as functional, Salmonella enterica subsp. enterica serovar Typhimurium. Conditions: Salmonella enterica.
Experiment [11] relates to Streptococcus pyogenes. As to the kind of experiment: In vitro antimicrobial activity against Streptococcus pyogenes 77A. Format: functional.
Experiment [12] concerns Streptococcus pyogenes. As to the kind of experiment: In vitro antimicrobial activity against Streptococcus pyogenes A 308. Format: functional.
For experiment [13], the system named is Streptococcus pyogenes. Description: In vitro antimicrobial activity against Streptococcus pyogenes SG 511. It counts as functional.
The test system of experiment [14] is Staphylococcus aureus. As to the kind of experiment: In vitro antimicrobial activity against Methicillin resistant Staphylococcus aureus (MRSA). It counts as functional.
Experiment [15] has as its system Staphylococcus aureus. Description: In vitro antimicrobial activity against Staphylococcus aureus 285. Format: functional.
In experiment [16] the test system is Staphylococcus aureus. As to the kind of experiment: In vitro antimicrobial activity against Staphylococcus aureus 503. Format: functional.
The test system of the next experiment is Enterococcus faecium. Description: In vitro antimicrobial activity against Streptococcus faecium MD 8b. Format: functional.
The test system of experiment [17] is Pseudomonas aeruginosa. As to the kind of experiment: In vitro antimicrobial activity against Pseudomonas aeruginosa 1592 E. Format: functional.

The structures appear in SMILES notation. ≈ marks a conversion by molar mass, not a printed value.

Regarding `CO/N=C(/C(=O)N[C@@H]1C(=O)N2C(C(=O)[O-])=C(C[n+]3cccc(-c4cc(C(N)=O)[nH]n4)c3)CS[C@H]12)c1csc(N)n1`, the MIC stood at 0.025 µg/mL (≈ 0.0428 µM) with Enterobacter cloacae [1]; 0.025 µg/mL (≈ 0.0428 µM) against Escherichia coli [2]; 0.098 µg/mL (≈ 0.168 µM) in the experiment on Escherichia coli [3]; 0.025 µg/mL (≈ 0.0428 µM) against Escherichia coli [4]; 0.025 µg/mL (≈ 0.0428 µM) in the experiment with Escherichia coli [5]; 0.195 µg/mL (≈ 0.334 µM) against Escherichia coli [6]. The MIC amounted to 50 µg/mL (≈ 85.7 µM) in the experiment on Enterobacter cloacae [7]; 1.56 µg/mL (≈ 2.68 µM) in the experiment on Klebsiella oxytoca; 0.049 µg/mL (≈ 0.084 µM) against Klebsiella aerogenes; 1.56 µg/mL (≈ 2.68 µM) in the experiment on Pseudomonas aeruginosa [8]; 0.781 µg/mL (≈ 1.34 µM) with Pseudomonas aeruginosa [9]; 6.25 µg/mL (≈ 10.7 µM) against Pseudomonas aeruginosa [10]. Further, the MIC against Salmonella typhimurium turned out to be 0.049 µg/mL (≈ 0.084 µM); against Streptococcus pyogenes [11], 0.013 µg/mL (≈ 0.0223 µM); against Streptococcus pyogenes [12], 0.013 µg/mL (≈ 0.0223 µM); against Streptococcus pyogenes [13], 0.781 µg/mL (≈ 1.34 µM); against Staphylococcus aureus [14], 50 µg/mL (≈ 85.7 µM); in the experiment on Staphylococcus aureus [15], 1.56 µg/mL (≈ 2.68 µM). The MIC against Staphylococcus aureus [16] worked out at 0.391 µg/mL (≈ 0.67 µM); against Enterococcus faecium, 3.12 µg/mL (≈ 5.35 µM); in the experiment with Pseudomonas aeruginosa [17], 3.12 µg/mL (≈ 5.35 µM).

Regarding `CO/N=C(/C(=O)N[C@@H]1C(=O)N2C(C(=O)[O-])=C(C[n+]3cccc(-c4cc(N)n(CCO)n4)c3)CS[C@H]12)c1csc(N)n1`, the MIC with Enterobacter cloacae [1] is 0.025 µg/mL (≈ 0.0417 µM); with Escherichia coli [2], 0.025 µg/mL (≈ 0.0417 µM); in the experiment on Escherichia coli [3], 0.098 µg/mL (≈ 0.163 µM); with Escherichia coli [4] it was 0.025 µg/mL (≈ 0.0417 µM); against Escherichia coli [5] it was 0.013 µg/mL (≈ 0.0217 µM); against Escherichia coli [6] it was 0.098 µg/mL (≈ 0.163 µM). In addition, the MIC in the experiment with Enterobacter cloacae [7] stood at 50 µg/mL (≈ 83.4 µM); with Klebsiella oxytoca it was 3.12 µg/mL (≈ 5.21 µM); against Klebsiella aerogenes it was 0.049 µg/mL (≈ 0.0817 µM); with Pseudomonas aeruginosa [8] it was 3.12 µg/mL (≈ 5.21 µM); with Pseudomonas aeruginosa [9], 0.391 µg/mL (≈ 0.652 µM); against Pseudomonas aeruginosa [10], 12.5 µg/mL (≈ 20.8 µM). In addition, the MIC in the experiment with Salmonella typhimurium was found to be 0.098 µg/mL (≈ 0.163 µM); with Streptococcus pyogenes [11] it was 0.013 µg/mL (≈ 0.0217 µM); in the experiment with Streptococcus pyogenes [12], 0.025 µg/mL (≈ 0.0417 µM); with Streptococcus pyogenes [13] it was 0.781 µg/mL (≈ 1.3 µM); in the experiment with Staphylococcus aureus [14], 12.5 µg/mL (≈ 20.8 µM); against Staphylococcus aureus [15], 1.56 µg/mL (≈ 2.61 µM). For the same molecule, the MIC stood at 0.391 µg/mL (≈ 0.652 µM) in the experiment on Staphylococcus aureus [16], 1.56 µg/mL (≈ 2.61 µM) against Enterococcus faecium and 6.25 µg/mL (≈ 10.4 µM) in the experiment on Pseudomonas aeruginosa [17].

`CO/N=C(/C(=O)N[C@@H]1C(=O)N2C(C(=O)[O-])=C(C[n+]3cccc(-c4cc(N)n(C)n4)c3)CS[C@H]12)c1csc(N)n1`: the MIC with Enterobacter cloacae [1] is 0.025 µg/mL (≈ 0.0439 µM); with Escherichia coli [2], 0.025 µg/mL (≈ 0.0439 µM); in the experiment with Escherichia coli [3], 0.049 µg/mL (≈ 0.086 µM); against Escherichia coli [4] it was 0.025 µg/mL (≈ 0.0439 µM); with Escherichia coli [5], 0.013 µg/mL (≈ 0.0228 µM); against Escherichia coli [6] it was 0.098 µg/mL (≈ 0.172 µM). In addition, the MIC is 25 µg/mL (≈ 43.9 µM) against Enterobacter cloacae [7]; 1.56 µg/mL (≈ 2.74 µM) in the experiment with Klebsiella oxytoca; 0.025 µg/mL (≈ 0.0439 µM) against Klebsiella aerogenes; 1.56 µg/mL (≈ 2.74 µM) in the experiment on Pseudomonas aeruginosa [8]; 0.391 µg/mL (≈ 0.686 µM) in the experiment with Pseudomonas aeruginosa [9]; 6.25 µg/mL (≈ 11 µM) in the experiment on Pseudomonas aeruginosa [10]. In addition, the MIC in the experiment with Salmonella typhimurium is 0.049 µg/mL (≈ 0.086 µM); with Streptococcus pyogenes [11], 0.007 µg/mL (≈ 0.0123 µM); against Streptococcus pyogenes [12] it was 0.013 µg/mL (≈ 0.0228 µM); in the experiment with Streptococcus pyogenes [13], 0.781 µg/mL (≈ 1.37 µM); against Staphylococcus aureus [14] it was 50 µg/mL (≈ 87.8 µM); against Staphylococcus aureus [15], 0.781 µg/mL (≈ 1.37 µM). Moreover, the MIC in the experiment with Staphylococcus aureus [16] stood at 0.391 µg/mL (≈ 0.686 µM); in the experiment with Enterococcus faecium, 1.56 µg/mL (≈ 2.74 µM); against Pseudomonas aeruginosa [17] it was 3.12 µg/mL (≈ 5.49 µM).

Take `CO/N=C(/C(=O)N[C@@H]1C(=O)N2C(C(=O)[O-])=C(C[n+]3cccc(-c4cc(C(N)=O)nn4CCO)c3)CS[C@H]12)c1csc(N)n1`: the minimum inhibitory concentration (MIC) in the experiment on Enterobacter cloacae [1] was found to be 0.049 µg/mL (≈ 0.0781 µM); in the experiment on Escherichia coli [2], 0.098 µg/mL (≈ 0.156 µM); against Escherichia coli [3] it was 0.195 µg/mL (≈ 0.311 µM); in the experiment with Escherichia coli [4], 0.098 µg/mL (≈ 0.156 µM); against Escherichia coli [5] it was 0.098 µg/mL (≈ 0.156 µM); in the experiment with Escherichia coli [6] it was 0.391 µg/mL (≈ 0.623 µM). The MIC in the experiment with Enterobacter cloacae [7] was found to be 50 µg/mL (≈ 79.7 µM); against Klebsiella oxytoca it was 6.25 µg/mL (≈ 9.96 µM); with Klebsiella aerogenes, 0.098 µg/mL (≈ 0.156 µM); in the experiment on Pseudomonas aeruginosa [8], 3.12 µg/mL (≈ 4.98 µM); in the experiment on Pseudomonas aeruginosa [9], 0.781 µg/mL (≈ 1.24 µM); in the experiment on Pseudomonas aeruginosa [10] it was 25 µg/mL (≈ 39.8 µM). Besides, the MIC in the experiment on Salmonella typhimurium stood at 0.098 µg/mL (≈ 0.156 µM); against Streptococcus pyogenes [11], 0.025 µg/mL (≈ 0.0398 µM); against Streptococcus pyogenes [12] it was 0.049 µg/mL (≈ 0.0781 µM); with Streptococcus pyogenes [13], 1.56 µg/mL (≈ 2.49 µM); with Staphylococcus aureus [14], 25 µg/mL (≈ 39.8 µM); against Staphylococcus aureus [15] it was 3.12 µg/mL (≈ 4.98 µM). Further, the MIC is 0.781 µg/mL (≈ 1.24 µM) with Staphylococcus aureus [16], 6.25 µg/mL (≈ 9.96 µM) in the experiment with Enterococcus faecium and 12.5 µg/mL (≈ 19.9 µM) against Pseudomonas aeruginosa [17].

With `CO/N=C(/C(=O)N[C@@H]1C(=O)N2C(C(=O)[O-])=C(C[n+]3cccc(-c4cc(C(N)=O)nn4C)c3)CS[C@H]12)c1csc(N)n1`, the MIC against Enterobacter cloacae [1] is 0.025 µg/mL (≈ 0.0418 µM); with Escherichia coli [2] it was 0.049 µg/mL (≈ 0.082 µM); in the experiment on Escherichia coli [3], 0.098 µg/mL (≈ 0.164 µM); in the experiment on Escherichia coli [4] it was 0.049 µg/mL (≈ 0.082 µM); in the experiment on Escherichia coli [5], 0.025 µg/mL (≈ 0.0418 µM); in the experiment on Escherichia coli [6] it was 0.195 µg/mL (≈ 0.326 µM). In addition, the MIC is 25 µg/mL (≈ 41.8 µM) in the experiment on Enterobacter cloacae [7]; 3.12 µg/mL (≈ 5.23 µM) in the experiment on Klebsiella oxytoca; 0.049 µg/mL (≈ 0.082 µM) with Klebsiella aerogenes; 3.12 µg/mL (≈ 5.23 µM) against Pseudomonas aeruginosa [8]; 0.391 µg/mL (≈ 0.654 µM) against Pseudomonas aeruginosa [9]; 25 µg/mL (≈ 41.8 µM) in the experiment with Pseudomonas aeruginosa [10]. Also, the MIC in the experiment with Salmonella typhimurium was found to be 0.098 µg/mL (≈ 0.164 µM); in the experiment with Streptococcus pyogenes [11], 0.013 µg/mL (≈ 0.0218 µM); against Streptococcus pyogenes [12] it was 0.025 µg/mL (≈ 0.0418 µM); against Streptococcus pyogenes [13] it was 1.56 µg/mL (≈ 2.62 µM); in the experiment with Staphylococcus aureus [14], 100 µg/mL (≈ 167 µM); with Staphylococcus aureus [15] it was 3.12 µg/mL (≈ 5.23 µM). The MIC in the experiment on Staphylococcus aureus [16] was determined as 0.391 µg/mL (≈ 0.654 µM); in the experiment on Enterococcus faecium it was 3.12 µg/mL (≈ 5.23 µM); against Pseudomonas aeruginosa [17], 12.5 µg/mL (≈ 20.9 µM).

Source of the values: ChEMBL document CHEMBL1132901, “Synthesis and structure-activity relationships of quaternary ammonium cephalosporins with 3-pyrazolylpyridinium derivatives” (2000).
